# Laboratory results published in article PMC9143880, “Improving Antimicrobial Activity and Physico-Chemical Properties by Isosteric Replacement of 2-Aminothiazole with 2-Aminooxazole” (Pharmaceuticals, 2022).
# pIC50: −log10 of the molar value. Read-outs that look alike come from different tables or passages of the source.
# Key:
# [1] = test system: M. smegmatis DSM 43465 (ATCC 607); experiment: Antimycobacterial MIC, microdilution broth / resazurin; type: cell-based; details: Mycolicibacterium smegmatis; resazurin after 48 h; read-out: MIC M. smegmatis
# [2] = test system: Candida albicans CCM 8320 (ATCC 24433); experiment: Antifungal microdilution broth (EUCAST); details: for MIC: Candida albicans, 24 h, read-out: MIC CA
# [3] = test system: Trichophyton interdigitale CCM 8377 (ATCC 9533); experiment: Antifungal microdilution broth (EUCAST); details: for MIC: Trichophyton interdigitale, 72 h, read-out: MIC TI
# [4] = test system: M. avium DSM 44156 (ATCC 25291); experiment: Antimycobacterial MIC, microdilution broth / resazurin; type: cell-based, Mycobacterium avium; details: Mycobacterium avium; resazurin after 96 h; read-out: MIC M. avium
# [5] = test system: Candida krusei CCM 8271 (ATCC 6258); experiment: Antifungal microdilution broth (EUCAST); details: for MIC: Pichia kudriavzevii, 24 h, read-out: MIC CK
# [6] = test system: Enterococcus faecalis CCM 4224 (ATCC 29212); experiment: Antibacterial microdilution broth (EUCAST); type: cell-based; details: 24h incubation; for MIC: Enterococcus faecalis, read-out: MIC EF
# [7] = test system: Staphylococcus epidermidis CCM 4418 (ATCC 12228); experiment: Antibacterial microdilution broth (EUCAST); type: cell-based; details: 24h incubation; for MIC: Staphylococcus epidermidis, read-out: MIC SE
# [8] = test system: Pseudomonas aeruginosa CCM 3955 (ATCC 27853); experiment: Antibacterial microdilution broth (EUCAST); type: cell-based; details: 72h incubation; for MIC: Pseudomonas aeruginosa, read-out: MIC PA
# [9] = test system: Staphylococcus aureus subsp. aureus CCM 4223 (ATCC 29213); experiment: Antibacterial microdilution broth (EUCAST); type: cell-based; details: 24h incubation; for MIC: Staphylococcus aureus, read-out: MIC SA
# [10] = test system: M. aurum DSM 43999 (ATCC 23366); experiment: Antimycobacterial MIC, microdilution broth / resazurin; type: cell-based; details: Mycolicibacterium aurum; resazurin after 72 h; read-out: MIC M. aurum
# HepG2 cells = experiment: HepG2 cytotoxicity screening (CellTiter 96); type: cell-based, human; details: for pIC50: Homo sapiens, HepG2, 24 h, 24 h incubation, CellTiter 96, * above highest tested concentration, ** limited by insolubility in medium
# [11] = test system: Candida parapsilosis CCM 8260 (ATCC 22019); experiment: Antifungal microdilution broth (EUCAST); details: for MIC: Lodderomyces parapsilosis, 24 h, read-out: MIC CP
# [12] = test system: M. kansasii DSM 44162 (ATCC 12478); experiment: Antimycobacterial MIC, microdilution broth / resazurin; type: cell-based; details: Mycobacterium kansasii, read-out: MIC M. kansasii
# [13] = test system: Aspergillus fumigatus ATCC 204305; experiment: Antifungal microdilution broth (EUCAST); details: for MIC: Aspergillus fumigatus, ATCC204305, 24 h, read-out: MIC AF
# [14] = test system: Lichtheimia corymbifera CCM 8077; experiment: Antifungal microdilution broth (EUCAST); details: for MIC: Lichtheimia corymbifera, CCM8077, 24 h, read-out: MIC LC
# [15] = test system: Aspergillus flavus CCM 8363; experiment: Antifungal microdilution broth (EUCAST); details: for MIC: Aspergillus flavus, CCM8363, 24 h, read-out: MIC AFla
# [16] = RP-UHPLC lipophilicity parameter log k’w; type: physicochemical; details: for log k’w: RP-UHPLC, acetonitrile/water, log k extrapolated to 0% acetonitrile; for logkw: experimental lipophilicity parameter
# From the text: Lipophilicity and water solubility of the drug candidates are important parameters as they are often directly related to their ADME properties in the organism. Lipophilicity is usually expressed as the logarithm of the partition coefficient in n-octanol/water (log P). Due to its laborious determination, especially in the HTS screening, other experimental methods such as RP-HPLC log k’w or purely computational approaches such as Clog P were proposed and have been established as reasonable estimators of true lipophilicity. To investigate the changes in lipophilicity upon introduction of oxazole in the title compounds, we determined the log k’w of all derivatives and compared respective values among the pairs.
# The log k of the synthesized compounds was measured using the same instrument (single measurement per concentration), software, and column as was used in the purity evaluation. Working solutions were diluted as described above for purity determination. The log k parameter was calculated after the UHPLC measurements using isocratic mode with mobile phase acetonitrile (B)/water (A) in a set of concentrations of 40, 45, 50% and 20, 30, 40% B for subtype I and subtype II, respectively.
# [17] = test system: Candida tropicalis CCM 8264 (ATCC 750); experiment: Antifungal microdilution broth (EUCAST); details: for MIC: Candida tropicalis, 24 h, read-out: MIC CT
# [18] = test system: Staphylococcus aureus subsp. aureus (MRSA) CCM 4750 (ATCC 43300); experiment: Antibacterial microdilution broth (EUCAST); type: cell-based; details: 24h incubation; for MIC: Staphylococcus aureus, read-out: MIC MRSA
# [19] = test system: Escherichia coli CCM 3954 (ATCC 25922); experiment: Antibacterial microdilution broth (EUCAST); type: cell-based; details: 24h incubation; for MIC: Escherichia coli, read-out: MIC EC
# [20] = test system: Mycobacterium tuberculosis H37Ra ITM-M006710 (ATCC 9431); experiment: Antimycobacterial MIC, microdilution broth / Alamar Blue (resazurin); type: cell-based; details: Mycobacterium tuberculosis
# [21] = test system: Acinetobacter baumannii DSM 30007 (ATCC 19606); experiment: Antibacterial microdilution broth (EUCAST); type: cell-based; details: 24h incubation; for MIC: Acinetobacter baumannii, read-out: MIC AB
# [22] = 120 h, Middlebrook 7H9, resazurin after 120 h, read-out: Mtb H37Ra MIC
Compound,MIC [1] [µg/mL],MIC [2] [µM],MIC [3] [µM],MIC [4] [µg/mL],MIC [5] [µM],MIC [6] [µM],MIC [7] [µM],MIC [8] [µM],MIC [9] [µM],MIC [10] [µg/mL],pIC50 (HepG2 cells),MIC [11] [µM],MIC ([12]; resazurin after 96 h) [µg/mL],MIC [13] [µM],MIC [14] [µM],MIC [15] [µM],log k’w [16],logkw [16],melting point [°C],"MIC [20, 22] [µg/mL]",also measured
Cc1cc(C(=O)Nc2ncco2)ccn1 [Compound 5b],250,> 125,> 125,62.5,> 125,> 500,> 500,> 500,> 500,15.6,< 3.00,> 125,31.2,> 125,> 125,> 125,0.714,0.714,149 to 152,3.91,"SI (HepG2 cells; SI = IC50 (µM) HepG2 / MICH37Ra (µM)): >52.0; MIC [17]: > 125 µM; MIC [18]: > 500 µM; MIC [19]: > 500 µM; MIC ([20]; recalculated from µg/mL, read-out: MICH37Ra): 19.2 µM; MIC [21]: > 500 µM"
Cc1cc(C(=O)Nc2nccs2)cc(Cl)n1 [Compound 7a],≥ 500,> 125,> 125,≥ 500,> 125,> 500,> 500,> 500,> 500,≥ 500,< 3.60,> 125,≥ 500,> 125,> 125,> 125,2.319,2.319,198.6,≥ 500,MIC [17]: > 125 µM; MIC [18]: > 500 µM; MIC [19]: > 500 µM; MIC [21]: > 500 µM
O=C(Nc1nc(-c2ccccc2)co1)c1cnc(Cl)cn1 [Compound 18b],≥ 500,,,62.5,,,,,,125,< 4.00,,,,,,2.073,2.073,203 to 207,15.6,MIC CA ([2]; 24h incubation): insoluble; MIC TI ([3]; 72h incubation): insoluble; MIC CK ([5]; 24h incubation): insoluble; MIC EF [6]: insoluble; MIC SE [7]: insoluble; MIC PA [8]: insoluble; MIC SA [9]: insoluble; MIC CP ([11]; 24h incubation): insoluble; MIC ([12]; 96 h): 15.6 µg/mL; MIC AF ([13]; 24h incubation): insoluble; MIC LC ([14]; 24h incubation): insoluble; MIC AFla ([15]; 24h incubation): insoluble; MIC CT ([17]; 24h incubation): insoluble; MIC MRSA [18]: insoluble; MIC EC [19]: insoluble; MIC AB [21]: insoluble
O=C(Nc1nccs1)c1cnc(Cl)cn1 [Compound 9a],≥ 500,> 500,> 500,15.6,> 500,> 500,> 500,> 500,> 500,≥ 500,,> 500,< 3.91,500,> 500,500,1.941,1.941,197 to 200,31.2,MIC [17]: > 500 µM; MIC [18]: > 500 µM; MIC [19]: > 500 µM; MIC [21]: > 500 µM
